Source: patent US20200369996A1, “Bioreactor Screening Platform for Modelling Human Systems Biology and for Screening for Inotropic Effects of Agents on the Heart” (NOVOHEART LIMITED, priority 2017, published 2020)
Values joined by “and” are separate entries in the source; they are usually repeats but may differ in a detail not shown here. Equal values may be shown once. Read-outs that look alike come from different tables or passages of the source.

Assays:
[1] = test system: human ventricular cardiac tissue strips (hvCTS); assay: hvCTS drug screening: twitch force under electrical pacing; type: cell-based; conditions: for IC50 / EC50: Homo sapiens; for IC50: read-out: IC50, developed contractile force
Description: One of ordinary skill in the art will recognize that the gels can be formed in any of a variety of sizes and shapes, and the molds used to form such gels can also be formed in any of a variety of sizes and shapes, depending on the intended use of the molded gel. The molded mixtures were then bathed with culture medium (DMEM supplemented with 10% newborn calf serum), and maintained in culture with daily half-medium exchanges. Inserts in the casting molds were removed at 48 hours, yielding a self-assembled hvCTS held between 0.5-mm-diameter circular PDMS posts at each end. It is apparent that the posts can be formed from any flexible material amenable to at least one form of sterilization are suitable. As noted above, the whole mold can be scaled up or down depending on the application, and the posts can also be scaled up or down. In general, the height of the posts would be similar to the height of a well (e.g., about 6 mm in an exemplary embodiment). Any of a wide variety of cross-sectional shapes is contemplated as being suitable for use in the system, apparatus and methods according to the disclosure. At 7 days after hvCTS creation, the hvCTS were used for drug screening.
Initially, pharmacological compounds were prepared for screening. Compounds for unblinded “open label” screening were purchased from Sigma and stock solutions at the highest possible concentrations were prepared according to the product information. Working concentrations over a 5-logarithmic range were prepared for each drug.
Working concentrations over a 5-logarithmic range were prepared for each drug according to the dose-range recommendation provided by the supplier.
New born calf serum containing medium was replaced with DMEM high glucose with HEPES without phenol red for optical measurement of generated force in hvCTS. […] The integrated flexible PDMS posts were used as force sensors, with the post deflection captured in real-time with a high-speed camera (100 frames/s) and LabView software (National Instruments, Austin, Tex., USA), applying a beam-bending equation from elasticity theory to calculate twitch force, as described previously^[2] and incorporated herein by reference. These measurements were obtained with the hvCTS maintained in the original molds where they were created with the hvCTS bathed in culture medium at 37° C. For each drug, force generated in response to 9 doses were measured with the drugs added to the hvCTS at half log increments in a cumulative manner. For each dose, the force generated at 0 Hz, 0.5 Hz, 1 Hz, 1.5 Hz and 2 Hz electrical pacing with field electrodes were measured.
Data analysis. Data were calculated and analyzed by a customized MatLab program. Force frequency curves for each drug were generated by plotting the generated force at 0.5 Hz, 1 Hz, 1.5 Hz and 2 Hz at different concentrations. All forces were normalized to the generated force at 0.5 Hz at the drug-free baseline condition (100%).
[…] The force generated under drug-free baseline condition was defined as 100%. The force generated at each drug concentration was then normalized to the generated force under the cognate drug-free baseline condition. The EC50 of each tested drug was estimated by fitting to a four-parameter dose-response equation given as: Y=Bottom+(Top-Bottom)/(1+10^((Log EC^50^−X)*HillSlope)), using commercial software (GraphPad Software Inc.). X is the logarithm of drug concentrations; […]; Top and Bottom are the Y values of the top and bottom plateaus of the curve itself; Baseline is the Y value that defines 0%—maximal inhibition by a standard drug. Hill Slope quantifies the steepness of the dose-response curve (the higher the Hill Slope, the steeper the curve).

[2] = cited from earlier work; for peak plasma concentration for improved ejection fraction and work product: ref [17]
[3] = test system: isolated human atrial tissue; conditions: isolated human atrial tissue from cardiac bypass; ref [6]; cited from earlier work
[4] = test system: human atrial and ventricular cardiomyocytes; conditions: ref [8]; cited from earlier work
[5] = test system: chick embryonic ventricular cells; conditions: ref [9]; cited from earlier work
canine papillary muscle = conditions: ref [11]; cited from earlier work
human atrial trabeculae = conditions: ref [13]; cited from earlier work
rat atrial trabeculae = conditions: ref [14]; cited from earlier work
[6] = test system: human right atrial trabeculae; conditions: ref [21]; cited from earlier work
[7] = 1 Hz pacing, blinded screening, Example 4
[8] = Blinded, 1 Hz pacing, read-out: -log EC50 in hvCTS (converted)
[9] = Blinded, 1 Hz pacing, read-out: EC50 in hvCTS (in brackets)
[10] = 1 Hz pacing, unblinded screening, Example 3
[11] = Unblinded, 1 Hz pacing, read-out: -log EC50 in hvCTS (converted)
[12] = Unblinded, 1 Hz pacing, read-out: EC50 in hvCTS (in brackets)
[13] = 1 Hz pacing, blinded screening, Example 4, read-out: EC50, developed contractile force
[14] = 1 Hz pacing, unblinded screening, Example 3, read-out: EC50, developed contractile force

Work on CN(C)CCC=C1c2ccccc2CCc2ccccc21 [Amitriptyline] yielded an IC50 [1, 7] of 450 µM, an EC50 [1, 8] of 447 µM and an EC50 [1, 9] of 450 µM. For the same molecule, the “plasma concentration in psychiatric patients” value ([2]; ref [5]) was 98-208 ng/mL and 0.35-0.74 μM and the 30-60% effective concentration [3] was 40-400 μM [6], 30-60% effective concentration.

With CC(=O)Oc1ccccc1C(=O)O [Aspirin] the “effect on developed contractile force / contractility” value ([1]; blinded screening, Example 4) was “did not show any dose-dependent effect on contractility”.

Work on CC(C)COCC(CN(Cc1ccccc1)c1ccccc1)N1CCCC1 (centres unmarked) [Bepridil] yielded an IC50 [1, 10] of 3.3 µM, an EC50 [1, 11] of 38 µM and an EC50 [1, 12] of 37.9 µM. For the same molecule, the relevant concentration [4] was 100 μM [8], human atrial and ventricular.

Molecule Cn1c(=O)c2c(ncn2C)n(C)c1=O [Caffeine] has an EC50 [1, 13] of 0.29 µM, an EC50 [1, 8] of 0.288 µM and an EC50 [1, 9] of 0.287 µM. The relevant concentration [5] was 20 mM [9], in chick embryonic ventricular cells.

C[C@H]1O[C@@H](O[C@H]2[C@@H](O)C[C@H](O[C@H]3[C@@H](O)C[C@H](O[C@H]4CC[C@@]5(C)[C@H](CC[C@@H]6[C@@H]5C[C@@H](O)[C@]5(C)[C@@H](C7=CC(=O)OC7)CC[C@]65O)C4)O[C@@H]3C)O[C@@H]2C)C[C@H](O)[C@@H]1O [Digoxin] gave an EC50 ([1]; read-out: -log EC50 in hvCTS (converted)) of 3.63 µM, an EC50 ([1]; read-out: EC50, developed contractile force) of 3.7 µM and an EC50 ([1]; read-out: EC50 in hvCTS (in brackets)) of 3.65 µM. For the same molecule, the “relevant concentration, increased pre-ejection period index” value ([2]; ref [10]) was 1 ng/ml (1 nM) ([10], increased pre-ejection.

Molecule CC(C)N(CCC(C(N)=O)(c1ccccc1)c1ccccn1)C(C)C (centres unmarked) [Disopyramide] has an EC50 [1, 14] of 80 µM, an EC50 [1, 11] of 81.3 µM and an EC50 [1, 12] of 82.2 µM. The “EC50 of developed tension” value (canine papillary muscle) was 824 μg [11], EC50 of developed tension in canine.

Work on CC(CCc1ccc(O)cc1)NCCc1ccc(O)c(O)c1 (centres unmarked) [Dobutamine] yielded an EC50 [1, 13] of 0.25 µM, an EC50 [1, 14] of 0.015 µM and an EC50 [1, 8] of 0.245 µM. For the same molecule, the EC50 [1, 9] was 0.25 µM, the EC50 [1, 11] was 0.0151 µM and the EC50 [1, 12] was 0.015 µM. The “peak plasma concentration with increased cardiac output” value ([2]; ref [12]) was 147-152 ng/ml and 0.487-0.5 μM and the relevant concentration (human atrial trabeculae) was 0.217 μM [13], human atrial trabeculae.

For NCCc1ccc(O)c(O)c1 [Dopamine], the “effect on developed contractile force / contractility” value ([1]; blinded screening, Example 4) is listed as “did not significantly affect the developed contractile force” and the relevant concentration (rat atrial trabeculae) is listed as 20 μM [14], in rat atrial trabeculae.

O=C(NCC1CCCCN1)c1cc(OCC(F)(F)F)ccc1OCC(F)(F)F (centres unmarked) [Flecainide] showed an IC50 [1, 7] of 15 µM, an EC50 [1, 14] of 75 µM and an EC50 [1, 8] of 15.1 µM. The EC50 [1, 9] was 151 µM, the EC50 [1, 11] was 75.9 µM and the EC50 [1, 12] was 75 µM.

Work on COc1ccc(Cl)cc1C(=O)NCCc1ccc(S(=O)(=O)NC(=O)NC2CCCCC2)cc1 [Glibenclamide] yielded an EC50 [1, 13] of 3.2 µM, an EC50 [1, 14] of 0.93 µM and an EC50 [1, 8] of 3.16 µM. For the same molecule, the EC50 [1, 9] was 3.17 µM, the EC50 [1, 11] was 0.933 µM and the EC50 [1, 12] was 0.93 µM. The “peak plasma concentration for improved ejection fraction and work product” value ([2]; after 5 mg oral administration) was 479 ng/ml and 0.096 μM.

Molecule C[C@@H]1CC(=O)NN=C1c1ccc(NN=C(C#N)C#N)cc1 [Levosimendan] has an EC50 [1, 14] of 0.15 µM, an EC50 [1, 11] of 0.145 µM and an EC50 [1, 12] of 0.15 µM. For the same molecule, the relevant concentration (human atrial trabeculae) was 0.19 μM [13], human atrial trabeculae.

With NCCCC[C@H](N[C@@H](CCc1ccccc1)C(=O)O)C(=O)N1CCC[C@H]1C(=O)O [Lisinopril] the “effect on developed contractile force / contractility” value ([1]; blinded screening, Example 4) was “small increase in developed contractile force with increasing concentrations”.

With COCC(=O)O[C@]1(CCN(C)CCCc2nc3ccccc3[nH]2)CCc2cc(F)ccc2[C@@H]1C(C)C [Mibefradil] the IC50 [1, 10] was 38 µM, the EC50 [1, 11] was 3.16 µM and the EC50 [1, 12] was 3.39 µM. For the same molecule, the IC50 [6] was 24.5 µM.

In the case of Cc1[nH]c(=O)c(C#N)cc1-c1ccncc1 [Milrinone], the EC50 [1, 13] is reported as 2.8 µM, the EC50 [1, 14] is reported as 0.41 µM and the EC50 [1, 8] is reported as 2.75 µM. For the same molecule, the EC50 [1, 9] was 2.77 µM, the EC50 [1, 11] was 0.407 µM and the EC50 [1, 12] was 0.41 µM.

In the case of COC(=O)C1=C(C)NC(C)=C(C(=O)OC)C1c1ccccc1[N+](=O)[O-] [Nifedipine], the “plasma concentration in patients with ischemic heart disease” value ([2]; ref [23]) is given as 29-73 ng/ml and 0.083-0.21 μM.

In the case of NC[C@H](O)c1ccc(O)c(O)c1 [Norepinephrine], the EC50 [1, 13] is reported as 0.35 µM, the EC50 [1, 8] is reported as 0.347 µM and the EC50 [1, 9] is reported as 0.35 µM. For the same molecule, the “plasma level after epinephrine infusion” value ([2]; ref [24]) was 267 pg/ml and 0.15 nM.

In the case of CCN(CC)CCNC(=O)c1ccc(N)cc1 [Procainamide], the “EC50 of developed tension” value (canine papillary muscle) is given as 7952 μg [11], EC50 of developed tension in canine.

Work on C=C[C@H]1C[N@@]2CC[C@H]1C[C@@H]2[C@@H](O)c1ccnc2ccc(OC)cc12 [Quinidine] yielded an IC50 [1, 7] of 200 µM, an EC50 [1, 8] of 204 µM and an EC50 [1, 9] of 200 µM. For the same molecule, the peak plasma concentration ([2]; at 495 mg, ref [26]) was 2.07 μg/ml and 6.3 μM.

For CCOC(=O)[C@H](CCc1ccccc1)N[C@@H](C)C(=O)N1[C@H](C(=O)O)C[C@@H]2CCC[C@@H]21 [Ramipril], the “effect on developed contractile force / contractility” value ([1]; blinded screening, Example 4) was “did not show any dose-dependent effect on contractility”.

For Cc1cccc(C)c1NC(=O)C(C)N (centres unmarked) [Tocainide], the “effect on developed contractile force” value ([1]; all concentrations and pacing frequencies, unblinded screening, Example 3) was “did not show any effect on developed contractile force”, the “effect on developed contractile force” value ([1]; all tested pacing frequencies, Example 2 / FIG. 2) was “no dose-dependent effect on contractile force” and the “effect on developed contractile force” value ([1]; all tested pacing frequencies, Example 2 / FIG. 2, listed as tocainide) was “No consistent change in developed contractile force”. For the same molecule, the “EC50 of developed tension” value (canine papillary muscle) was 1212 μg [11], EC50 of developed tension in canine.

In the case of CCCCNC(=O)NS(=O)(=O)c1ccc(C)cc1 [Tolbutamide], the “effect on developed contractile force / contractility” value ([1]; blinded screening, Example 4) is given as “did not show any dose-dependent effect on contractility” and the “peak plasma concentration for improved ejection fraction and work product” value ([2]; after 1250 mg oral administration) is given as 63.5 μg/ml and 230 μM.
